Assay results published in patent US10065972B2, “Bicyclic or tricyclic heterocyclic compound” (MITSUBISHI TANABE PHARMA CORPORATION, priority 2014, dated 2018).
Where a name gives a salt, the structure may show the parent alone.

Target: human recombinant KAT-II (Homo sapiens (Human), UniProt Q8N5Z0)
Experiment: KAT-II inhibitory test
Type: biochemical
Conditions: 3.0 μmol/L kynurenine, 37° C., 1 hr, pH 8.0; kynurenic acid quantified by HPLC
Procedure: The compounds described in the above-mentioned Examples were used for the KAT-II inhibitory test.
Preparation of Human Recombinant KAT-II
Human recombinant KAT-II was prepared as follows.
His tag and maltose binding protein tag were added to the N-terminal of a gene encoding human KAT-II (Genbank accession number: AF481738.1), and the obtained gene was incorporated into pET32 (Merck Nihon Millipore), which is an Escherichia coli expression vector. Human recombinant KAT-II produced by BL21(DE3) Escherichia coli (Merck Nihon Millipore, 69450) transformed using the plasmid was purified using an amylose resin column (New England Biolabs, #800-21 L).
The inhibitory action of the test compound on human recombinant KAT-II was determined by the following method.
To a reaction mixture (45 μL) containing 3.0 μmol/L kynurenine, 10 μmol/L pyridoxal phosphate, 2.0 ng/μL human recombinant KAT-II, and 150 mmol/L tris(hydroxymethyl)aminomethane-acetate buffer (pH 8.0) was added a 10% dimethyl sulfoxide solution (5 μL) of each test compound prepared, and the mixture was reacted at 37° C. for 1 hr. After the reaction, 50% trichloroacetic acid (5 μL) was added to terminate the reaction.
The resultant kynurenic acid was quantified as follows by high performance liquid chromatography. An enzyme reaction mixture was separated by an octadecylsilane reversed-phase column (SC-50DS, Eicom Corporation; mobile phase: 250 mmol/L zinc acetate, 50 mmol/L sodium acetate, and 5.0% acetonitrile (pH 6.2)) incubated at 30° C., and kynurenic acid was quantified using a fluorescence detector (RF-20Axs, Shimadzu Corporation) at excitation wavelength 354 nm, detection wavelength 460 nm. The analytical curve was drawn every time by an external standard method. Each test compound was tested by dual measurement at each concentration.

Chain of human recombinant KAT-II (Q8N5Z0 30-425): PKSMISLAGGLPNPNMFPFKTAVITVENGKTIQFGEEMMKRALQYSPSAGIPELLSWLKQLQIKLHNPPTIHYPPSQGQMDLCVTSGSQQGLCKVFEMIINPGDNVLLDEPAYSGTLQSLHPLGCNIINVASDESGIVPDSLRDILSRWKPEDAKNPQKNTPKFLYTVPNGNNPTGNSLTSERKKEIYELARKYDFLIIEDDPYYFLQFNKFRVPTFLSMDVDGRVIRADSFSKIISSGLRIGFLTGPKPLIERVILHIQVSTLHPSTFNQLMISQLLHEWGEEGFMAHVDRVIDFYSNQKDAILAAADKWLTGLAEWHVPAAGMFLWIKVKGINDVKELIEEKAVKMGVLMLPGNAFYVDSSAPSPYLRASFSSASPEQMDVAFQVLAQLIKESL

SMILES | IC50 [nM]
O=C(NCc1ccccc1)[C@H]1CCCN1c1nc2c(=O)n(C3COC3)c(C(F)(F)F)nc2s1 [Example 251, (R)-N-benzyl-1-[6-(oxetan-3-yl)-7-oxo-5-trifluoromethyl-6,7-dihydro-[1,3]thiazolo[5,4-d]pyrimidin-2-yl]pyrrolidine-2-carboxamide] | 40
COCC1(c2nc3sc([C@H]4CCCN4C(=O)Oc4ccccc4)nc3c(=O)[nH]2)CC1 [Example 96, (R)-2-{5-[1-(methoxymethyl)cyclopropyl]-7-oxo-6,7-dihydro[1,3]thiazolo[5,4-d]pyrimidin-2-yl}pyrrolidine-1-carboxylic acid phenyl ester] | 19
O=C(NCc1ccccc1)[C@H]1CCCN1c1nc2c(=O)[nH]c(N3CCCCC3)nc2s1 [Example 728, (R)-N-benzyl-1-[7-oxo-5-(piperidin-1-yl)-6,7-dihydro[1,3]thiazolo[5,4-d]pyrimidin-2-yl]pyrrolidine-2-carboxamide] | 24
CCn1c(C(F)F)nc2sc(N3CCC[C@@H]3C(=O)NCc3ccco3)nc2c1=O [Example 307, (R)-1-(5-difluoromethyl-6-ethyl-7-oxo-6,7-dihydro-[1,3]thiazolo[5,4-d]pyrimidin-2-yl)-N-[(furan-2-yl)methyl]pyrrolidine-2-carboxamide] | 120
O=C(NCc1ccccc1)[C@H]1CCCN1c1nc2c(=O)n(CC3CCOCC3)c(C(F)F)nc2s1 [Example 254, (R)-N-benzyl-1-{5-difluoromethyl-7-oxo-6-[(tetrahydro-2H-pyran-4-yl)methyl]-6,7-dihydro-[1,3]thiazolo[5,4-d]pyrimidin-2-yl}pyrrolidine-2-carboxamide] | 11
Cc1nc2ccc(N3CCC[C@@H]3C(=O)NCc3ccccc3)nc2c(=O)n1CC(F)(F)F [Example 706, (R)-N-benzyl-1-[2-methyl-4-oxo-3-(2,2,2-trifluoroethyl)-3,4-dihydropyrido[3,2-d]pyrimidin-6-yl]pyrrolidine-2-carboxamide] | 170
CN(CCn1c(C(F)(F)F)nc2sc(N3CCC[C@@H]3C(=O)NCc3ccccc3)nc2c1=O)CC(F)(F)F [Example 373, (R)-N-benzyl-1-[6-{2-[N′-methyl-N′-(2,2,2-trifluoroethyl)amino]ethyl}-7-oxo-5-trifluoromethyl-6,7-dihydro[1,3]thiazolo[5,4-d]pyrimidin-2-yl]pyrrolidine-2-carboxamide hydrochloride] | 8
CCn1c(C(F)F)nc2sc(N3CCC[C@@H]3C(=O)NCc3cc(C)nn3C)nc2c1=O [Example 313, (R)-1-(5-difluoromethyl-6-ethyl-7-oxo-6,7-dihydro-[1,3]thiazolo[5,4-d]pyrimidin-2-yl)-N-[(2,5-dimethyl-2H-pyrazol-3-yl)methyl]pyrrolidine-2-carboxamide] | 1100
Cc1ccccc1-c1nc2sc([C@H]3CCCN3C(=O)Oc3ccccc3)nc2c(=O)[nH]1 [Example 69, (R)-2-[5-(2-methylphenyl)-7-oxo-6,7-dihydro[1,3]thiazolo[5,4-d]pyrimidin-2-yl]pyrrolidine-1-carboxylic acid phenyl ester] | 40
COCc1nc2sc(N3CCC[C@@H]3C(=O)NCc3ccccc3)nc2c(=O)n1C1CCOCC1 [Example 565, (R)-N-benzyl-1-[5-methoxymethyl-7-oxo-6-(tetrahydro-2H-pyran-4-yl)-6,7-dihydro[1,3]thiazolo[5,4-d]pyrimidin-2-yl]pyrrolidine-2-carboxamide] | 10
CCc1nc2sc(N3CCC[C@@H]3C(=O)COc3ccccc3)nc2c(=O)n1C [Example 575, 5-ethyl-6-methyl-2-[(R)-2-(2-phenoxyacetyl)pyrrolidin-1-yl][1,3]thiazolo[5,4-d]pyrimidin-7(6H)-one] | 19
CC(C)c1nc2sc([C@H]3CCCN3C(=O)Oc3ccccc3)nc2c(=O)[nH]1 [Example 63, (R)-2-[7-oxo-5-(propan-2-yl)-6,7-dihydro[1,3]thiazolo[5,4-d]pyrimidin-2-yl]pyrrolidine-1-carboxylic acid phenyl ester] | 15
CC(C)c1cc(=O)n2nc([C@H]3CCCN3C(=O)CN3CCCc4ccccc43)sc2n1 [Example 166, 2-{(R)-1-[(3,4-dihydroquinolin-1(2H)-yl)acetyl]pyrrolidin-2-yl}-7-(propan-2-yl)-5H-[1,3,4]thiadiazolo[3,2-a]pyrimidin-5-one] | 190
O=C(NCc1ccccc1)[C@H]1CCCN1c1nc2c(=O)[nH]c(C3CC3)c(Cl)c2s1 [Example 623, (R)-N-benzyl-1-(7-chloro-6-cyclopropyl-4-oxo-4,5-dihydro[1,3]thiazolo[4,5-c]pyridin-2-yl)pyrrolidine-2-carboxamide] | 22
O=C(Cc1ccccc1)N1CCC[C@@H]1c1nc2c(=O)[nH]c(C3(C(F)(F)F)CC3)nc2s1 [Example 97, 2-[(R)-1-(phenylacetyl)pyrrolidin-2-yl]-5-[1-(trifluoromethyl)cyclopropyl]-6H-[1,3]thiazolo[5,4-d]pyrimidin-7-one] | 13
CCc1cc(=O)n2nc(N3CCOC[C@@H]3C(=O)NCc3ccccc3)sc2n1 [Example 645, (R)-N-benzyl-4-(7-ethyl-5-oxo-5H-[1,3,4]thiadiazolo[3,2-a]pyrimidin-2-yl)morpholine-3-carboxamide] | 1600
Cc1cc(F)c(-c2nc3sc(N4CCC[C@@H]4C(=O)NCc4ccccc4)nc3c(=O)[nH]2)s1 [Example 501, (R)-N-benzyl-1-[5-(3-fluoro-5-methylthiophen-2-yl)-7-oxo-6,7-dihydro[1,3]thiazolo[5,4-d]pyrimidin-2-yl]pyrrolidine-2-carboxamide] | 17
CCc1nc2sc(N3CCC[C@@H]3C(=O)NCc3cnc(C)cn3)nn2c(=O)c1F [Example 685, (R)-1-(7-ethyl-6-fluoro-5-oxo-5H-[1,3,4]thiadiazolo[3,2-a]pyrimidin-2-yl)-N-[(5-methylpyrazin-2-yl)methyl]pyrrolidine-2-carboxamide] | 2200

Continued, values first:

IC50 [nM] | SMILES
7.3 | Cc1noc(-c2nc3sc(N4CCC[C@@H]4C(=O)NCc4ccccc4)nc3c(=O)n2C)n1 [Example 211, (R)-N-benzyl-1-[6-methyl-5-(3-methyl-1,2,4-oxadiazol-5-yl)-7-oxo-6,7-dihydro[1,3]thiazolo[5,4-d]pyrimidin-2-yl]pyrrolidine-2-carboxamide]
280 | CN1CCn2c(nc3sc(N4CCC[C@@H]4C(=O)NCc4ccccc4)nc3c2=O)C1 [Example 590, (R)-N-benzyl-1-(6-methyl-10-oxo-5,7,8,10-tetrahydro-6H-pyrazino[1,2-a][1,3]thiazolo[5,4-d]pyrimidin-2-yl)pyrrolidine-2-carboxamide]
7 | Cn1c(-c2c(F)cccc2F)nc2sc(N3CCC[C@@H]3C(=O)NCc3ccccc3)nc2c1=O [Example 204, (R)-N-benzyl-1-[5-(2,6-difluorophenyl)-6-methyl-7-oxo-6,7-dihydro[1,3]thiazolo[5,4-d]pyrimidin-2-yl]pyrrolidine-2-carboxamide]
370 | CN(C)CCOc1nc2sc(N3CCC[C@@H]3C(=O)NCc3ccccc3)nc2c(=O)n1C [Example 406, (R)-N-benzyl-1-{5-[2-(N′,N′-dimethylamino)ethoxy]-6-methyl-7-oxo-6,7-dihydro[1,3]thiazolo[5,4-d]pyrimidin-2-yl}pyrrolidine-2-carboxamide]
21 | Cc1ccccc1CNC(=O)[C@H]1CCCN1c1nc2c(=O)n(C)c(C)nc2s1 [Example 229, (R)-1-(5,6-dimethyl-7-oxo-6,7-dihydro-[1,3]thiazolo[5,4-d]pyrimidin-2-yl)-N-(2-methylbenzyl)pyrrolidine-2-carboxamide]
7.9 | Cn1c(N2CCOCC2)nc2sc(N3CCC[C@@H]3C(=O)NCc3ccccc3)nc2c1=O [Example 339, (R)-N-benzyl-1-[6-methyl-5-(morpholin-4-yl)-7-oxo-6,7-dihydro[1,3]thiazolo[5,4-d]pyrimidin-2-yl]pyrrolidine-2-carboxamide]
4.8 | Cc1noc(-c2nc3sc(N4CCC[C@@H]4C(=O)NCc4ccccc4)nc3c(=O)n2CC(F)F)n1 [Example 221, (R)-N-benzyl-1-[6-(2,2-difluoroethyl)-5-(3-methyl-1,2,4-oxadiazol-5-yl)-7-oxo-6,7-dihydro[1,3]thiazolo[5,4-d]pyrimidin-2-yl]pyrrolidine-2-carboxamide]
14 | Cn1c(-c2c(F)cc(F)cc2F)nc2sc(N3CCC[C@@H]3C(=O)NCc3ccccc3)nc2c1=O [Example 203, (R)-N-benzyl-1-[6-methyl-7-oxo-5-(2,4,6-trifluorophenyl)-6,7-dihydro[1,3]thiazolo[5,4-d]pyrimidin-2-yl]pyrrolidine-2-carboxamide]
70 | COC1CN(Cc2nc3sc(N4CCC[C@@H]4C(=O)NCc4ccccc4)nc3c(=O)n2C)C1 [Example 321, (R)-N-benzyl-1-{5-[(3-methoxyazetidin-1-yl)methyl]-6-methyl-7-oxo-6,7-dihydro[1,3]thiazolo[5,4-d]pyrimidin-2-yl}pyrrolidine-2-carboxamide]
